Data: US7001748B2, “Methods of making polyketides using hybrid polyketide synthases” (The Board of Trustees of the Leland Stanford Junior …, priority 1999, dated 2006)

System: (5)M2+TE, (5)M5+TE, and (5)M6+TE
Assay: Diketide incorporation, statements made for all three modules together
Assay type: biochemical
Conditions: control studies, data not shown
Description: Qualitative Substrate Incorporation Assays. The reaction buffer for the diketide incorporation assays contained 400 mM NaH2PO4 (pH 7.2), 2.5 mM DTT, 1 mM ETDA, 20% glyercol (reaction buffer C). 1 μM module, 20 μM acyl-ACP, 500 μMDL-[2-^14C]-methylmalonyl CoA (ARC), and 4 mM NADPH (Sigma) were incubated in 20 μL of the reaction buffer at 30° C. for 1.5 h. The reactions were either spotted directly onto a TLC plate (Whatman 250 μM silica gel, UV254), or first extracted with EtOAc followed by spotting of the organic extracts on a TLC plate. The TLC plates were resolved using 60% EtOAc in hexanes, and the radioactive products were visualized on a Packard InstantImager.
Determination of kcat Values. […] To quench the reactions, 20 μL reaction aliquots were mixed with 80 μL of 12.5% SDS. kcat values for the acyl-ACP substrates were determined by measuring steady-state saturating rates at multiple substrate concentrations (varying from 40 to 90 μM 4). […]
Qualitative Assays of Diketide Incorporation by Acyl-ACPs. […] 2000, 122, 4847-4852 (It should be noted that elongation of 4c and 4d by modules 5+TE and 6+TE yielded minor quantities of unreduced triketide lactones, indicating less efficient β-ketoreductase activity on these two anti-diketide substrates than on the two syn-diketide substrates.). […]

Structure (SMILES): CCC(O)C(C)C(=O)SCCNC(=O)CCNC(=O)C(O)C(C)(C)COP(=O)(O)OP(=O)(O)OCC1OC(n2cnc3c(N)ncnc32)C(O)C1OP(=O)(O)O (stereo not shown) [5a]
- CoA thioester compared with NAC thioester 2a as substrate: approximately equivalent substrates
